This assay concerns AkrRE1/2 luciferase reporters. The assay can be described thus: AkrRE1/2 luciferase reporter assay with mevalonate pathway metabolites in primary CGE and MGE cells. The note with it: FOH 0.1-100 μM, GGOH 0.01-100 μM, FIG. 2G-J. Format: cell-based, mouse. An excerpt: For all luciferase experiments, enhancers were cloned into the pGL3 promoter vector (Promega) using the KpnI and NheI restriction sites on the 5′ and 3′ sites, respectively. The Calb1 enhancers (site 1, site 2, and site 3), AkrR enhancers (site 1 and site 2), NPY enhancers (site 1 and site 2), and SST enhancer (site 1) were identified by MACS2 peak analysis of ChIP-seq (DNA sequences obtained from the UCSC genome browser). Primers were designed to PCR amplify enhancer sequences from C57BL/6J mouse genomic DNA into expression plasmids.
MGE and CGE tissues were dissected from E13.5 Swiss Webster embryos, dissociated in L15 media by pipetting several times, and spun through a cell strainer for single cell preparations. Briefly, cells were seeded at a density of 2.5×10^5 cells per cm^2 (Flandin et al. 2011). One day prior to seeding cells, 24-well plates were coated with poly-L-lysine (30 μg/mL; Sigma) and laminin (5 μg/mL; Sigma), while 96-well plates were coated with poly-L-lysine (3 μg/mL; Sigma) and laminin (5 μg/mL; Sigma). Initially, cells were seeded in neurobasal medium (DMEM/F-12 supplemented with L-glutamate, B-27 (Gibco), N2 supplement (Gibco), bovine pituitary extract (35 μg/mL; Life Technologies), mito+ serum extender (BD Biosciences), penicillin (100 U/mL; Gibco), streptomycin (100 μg/mL; Gibco), and glutamax (0.8 mM; Gibco)). […]

Results on two molecules are retold here after patent US10702589B2, “Compositions and methods of treating neurological disorder and stress-induced conditions” (Ann and Robert H. Lurie Children's Hospital of Chicago, priority 2016, dated 2020).

For the molecule `CC(C)=CCC/C(C)=C/CC/C(C)=C/CC/C(C)=C/CO` [GGOH, geranylgeraniol], the “effect on AkrRE1/2 luciferase reporters, normalized to buffer alone” value is “dose-dependent, enhancer- and region-specific effects”. Turning to `CC(C)=CCCC(C)=CCCC(C)=CCO` [FOH, farnesol], the “effect on AkrRE1/2 luciferase reporters, normalized to buffer alone” value was “dose-dependent, enhancer- and region-specific effects”.
